Molecules are shown by their SMILES.

This data set in a line: gradient 5% acetonitrile 3 min, to 50% in 2 min, to 85% in 15 min, held 3 min, 100 µL/min. The following applies: column: Zorbax Extend-C18 2.1 x 50 mm; eluents: water / acetonitrile, 0.1% formic acid. The essentials:
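Each retention time is based on an adduct peak selected computationally and verified by manual inspection. Measurements used HPLC–quadrupole time-of-flight mass spectrometry in positive and negative ionization mode on mixtures of ~100 pure standards. Chromatography ran on a Zorbax Extend-C18 column (2.1 × 50 mm, 1.8 μm) at 100 μL/min with water and acetonitrile, each containing 0.1% formic acid, and dead and dwell volumes of 40 μL and 900 μL.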
On to `O=C(Nc1ccc(N2CCN(C3CCCCC3)C2=O)nc1)c1ccc2c(c1)OCO2`, for which the RP-LC retention time came to 808 s.

As to `CCCC(CCC)C(=O)N1CCCN(C2=NS(=O)(=O)C(c3ccc(F)cc3)=C2C)CC1`, the RP-LC retention time turned out to be 972 s. For `Cc1cc(C)cc(NC(=O)C2CCCN(S(=O)(=O)c3c[nH]c(C(=O)N4CCCCCC4)c3)C2)c1` (centres undefined), the RP-LC retention time is 955 s. `COc1ccc(NC(=O)c2cc(C(C)(C)C)n3nccc3n2)cc1OC` returned an RP-LC retention time of 1110 s. Turning to `CN(C)CC/C=C1/c2ccccc2COc2ccccc21`, the RP-LC retention time amounted to 760 s. The molecule `CCOc1ccc(NC(=O)Cn2nc(N3CCSCC3)c3ccccc3c2=O)cc1` came in with an RP-LC retention time of 929 s. Next, `CCOCc1nc(C2CCCN(C(=O)NC3CCCCC3)C2)no1` (centres undefined): 804 s; `CCOC(=O)C1=C(CN(CC)Cc2ccccc2)NC(=O)NC1c1cccs1` (centres undefined): 674 s; `CCN1CCCn2nc(C3CCN(S(=O)(=O)c4ccc(F)cc4)CC3)cc2C1=O`: 761 s.

As to `Cc1ncc2c(n1)CCN(C(=O)c1ccc(Cl)cc1)C2`, the RP-LC retention time was determined as 627 s.

`Cc1nc(N2CCOCC2)c2c(C(=O)N3CCN(c4cccc(Cl)c4)CC3)c(C)oc2n1`: the RP-LC retention time came out at 917 s. `CCCN(CC1CCOC1)C(=O)Nc1ccc(C)c(Cl)c1` (centres undefined) registered an RP-LC retention time of 959 s. For `CCc1cc(=O)n(CC(=O)NCc2ccc(C)cc2)c(N2CCOCC2)n1`, the RP-LC retention time was found to be 747 s. Next, `Cn1cnc(S(=O)(=O)N2CCC(C(=O)Nc3cccc(Br)c3)CC2)c1`: 741 s; `CC(C)CNC(=O)C1CCN(C(=O)Nc2ccc(NC(=O)Nc3ccccc3)cc2)CC1`: 812 s; `CN1C(=O)c2cccn2CC1CNC(=O)c1ccnn1C` (centres undefined): 591 s. As to `Cc1ccc(S(=O)(=O)N2CCCC(CCC(=O)NC3CCS(=O)(=O)C3)C2)cc1` (centres undefined), the RP-LC retention time was found to be 765 s.

`CC1(C)CC(=O)c2c(nc(N3CCN(c4ncccn4)CC3)nc2Nc2ccccc2)C1` displayed an RP-LC retention time of 1330 s. `Cc1cccc(-c2nc(Cn3ccnc3)no2)c1` returned an RP-LC retention time of 600 s. `CCCCN1C(=O)C(C)(C(=O)NCc2cccc(C)c2)Oc2cccnc21` (centres undefined) yielded an RP-LC retention time of 1030 s. Next, `O=C(NCCOc1ccc(F)cc1)c1cc(-c2cccs2)n(C2CCS(=O)(=O)C2)n1` (centres undefined): 793 s; `Cc1ccc(-c2noc(CCN3CCN(C(C)C)CC3)n2)cc1`: 640 s; `O=C(NC1CCCC1)c1nc(C(=O)N2CCN(c3ccccc3F)CC2)cs1`: 940 s. Molecule `CCOc1ccc2cccc(NC(=O)c3cnccn3)c2n1` came in with an RP-LC retention time of 1080 s. Next, `Cc1cccc2c(=O)n(C)c(CCC(=O)NCc3ccc(Br)cc3)nc12`: 887 s.

In the case of `COc1ccc(NS(=O)(=O)c2cc(-c3cc(C(F)(F)F)on3)sc2C)cc1`, the RP-LC retention time was found to be 1120 s.

`CN1CCN(c2cc(C(=O)O)c3cc(NC(=O)C(C)(C)C)ccc3n2)CC1` returned an RP-LC retention time of 578 s. In turn, `Brc1ccc(-c2nnc(Cc3nc(-c4ccccc4)no3)o2)cc1` gave an RP-LC retention time of 1100 s. In the case of `CCn1cc(CCN2CCN(S(=O)(=O)c3cccs3)CC2)c2cccnc21`, the RP-LC retention time stood at 962 s.

Take `CCOc1ccc(C(=O)N2CCC3(C2)C(=O)N(C)c2ccccc23)cc1` (centres undefined): the RP-LC retention time is 802 s. `Cc1cc(S(=O)(=O)N2CCc3nn(C)c(=O)n3CC2)ccc1Cl` yielded an RP-LC retention time of 744 s. On to `COc1ccc(C(=O)Nc2ccc3c(c2)Sc2ncccc2C(=O)N3C(C)C)cc1F`, for which the RP-LC retention time is 894 s. Consider `COc1ccc(-c2nnc(-c3cc(S(=O)(=O)NCC4CCCO4)ccc3Cl)o2)cc1` (centres undefined), for which the RP-LC retention time was 917 s. On to `Cc1cc(NC(=O)c2c(O)c3cccnc3n(-c3ccccc3)c2=O)ccc1F`, for which the RP-LC retention time was found to be 1160 s. `CCOC(=O)c1c(C)oc2nc(C)nc(N3CCN(c4ccccn4)CC3)c12` returned an RP-LC retention time of 654 s. In the case of `O=c1n(Cc2cccc(C(F)(F)F)c2)nc2c(S(=O)(=O)N3CCc4ccccc4C3)cccn12`, the RP-LC retention time was 1010 s. Molecule `CCOCc1nc(C2CCCN2S(=O)(=O)c2ccc3c(c2)CCC3)no1` (centres undefined) displayed an RP-LC retention time of 1020 s. In the case of `O=C(C1CCC(=O)N1S(=O)(=O)c1ccccc1)N1CCN(C2CCCCC2)CC1` (centres undefined), the RP-LC retention time was 619 s.

Turning to `COc1ccc(Cl)cc1C(=O)N1CCCN(C2CCN(CC3CC3)C2=O)CC1` (centres undefined), the RP-LC retention time was 553 s. Then `Cc1noc(C)c1-c1ccc(S(=O)(=O)N2CCCc3ccccc32)cc1`, with 1060 s; and `Cc1cccc(N(C)C(=O)CN2C(=O)NC3(CCCCC3)C2=O)c1`, with 784 s. For `CNC(=O)Nc1ccc(S(N)(=O)=O)cc1`, the RP-LC retention time turned out to be 604 s.

`Cc1ccc(-c2cc3n(n2)CCCN(C(=O)c2n[nH]c4ccccc24)C3)cc1` registered an RP-LC retention time of 850 s. Turning to `Cc1cc(NC(=O)c2cc(=O)c3ccccc3o2)n(-c2nc(-c3ccc(F)cc3)cs2)n1`, the RP-LC retention time was determined as 1240 s.

Turning to `Cc1cccc(NC(=O)N2CCc3nc(-c4ccc(Cl)cc4)ncc3C2)c1C`, the RP-LC retention time is 660 s.

Turning to `O=C(NCCc1ccccc1)c1nc(Cn2c(=O)oc3ccccc32)no1`, the RP-LC retention time is 888 s.

Take `Cc1csc(-c2cc(S(=O)(=O)NCCN3CCCCC3C)cn2CC(=O)N2CCCCC2)n1` (centres undefined): the RP-LC retention time stood at 673 s. Regarding `CCOC(=O)CNC(=O)Nc1cccc(-c2nnc(Cc3ccc(C)cc3)o2)c1`, the RP-LC retention time amounted to 867 s. On to `O=c1c2cc(-c3ccc(F)cc3)nn2ccn1Cc1noc(CN2CCCCC2)n1`, for which the RP-LC retention time was determined as 656 s. Next, `CCCCN1C(=O)C(C)(C(=O)NCc2ccccc2)Oc2cccnc21` (centres undefined): 972 s; `CC(=O)c1cccc(N2C(=O)COc3ccc(Br)cc3C2C(=O)NC2CCCC2)c1` (centres undefined): 913 s. Molecule `COc1ccc(C(=O)N2CCN(c3cc(C(C)C)n4cnnc4n3)CC2)c(OC)c1` returned an RP-LC retention time of 609 s. `COC(=O)c1c(-c2cccc(F)c2)noc1NCCN1CCCC1` showed an RP-LC retention time of 640 s. Molecule `O=C(CCC1CCCN(S(=O)(=O)c2ccccc2F)C1)NCCc1ccccc1` (centres undefined) displayed an RP-LC retention time of 952 s. Then `Cc1ccc(C(C)NC(=O)c2ccc(CN3CCN(C(C)C)C(=O)C3=O)cc2)c(C)c1` (centres undefined), with 761 s; and `O=C1C2N=NN(Cc3nc(-c4cccc(C(F)(F)F)c4)no3)C2C(=O)N1c1ccc2c(c1)CCC2` (centres undefined), with 1170 s.

Molecule `Cc1csc(NC(=O)c2cc(Sc3nncn3C)ccc2N)n1` gave an RP-LC retention time of 700 s.

In turn, `CC(C)(C)c1cc(NCc2ccccn2)n2ncc(-c3ccccc3)c2n1` showed an RP-LC retention time of 1230 s. Molecule `O=C(Nc1ccc(N2CCCN(C(=O)C3CC3)CC2)cc1)c1cncc(Br)c1` gave an RP-LC retention time of 701 s. In turn, `Cc1ccc(NC(=O)N2CCC(N3CCN(Cc4ccccc4)C3=O)CC2)cc1Cl` registered an RP-LC retention time of 938 s. Molecule `COc1ccccc1-c1nnc(SCc2cccc(C(F)(F)F)c2)o1` gave an RP-LC retention time of 991 s. In the case of `Cc1cc(C)c(C)c(S(=O)(=O)N2CC(=O)N(CC3CC3)CC23CCCC3)c1C`, the RP-LC retention time turned out to be 1170 s.

`Cc1cccn2c(Nc3ccc4c(c3)OCCO4)c(-c3ccccc3O)nc12` yielded an RP-LC retention time of 719 s.

On to `O=C(Nc1nc(CCC(=O)N2CCn3c2nc2ccccc23)cs1)c1ccc(F)cc1`, for which the RP-LC retention time was found to be 721 s. Regarding `COCCCNC(=O)N1CCCC1c1nc(-c2cccc(C)c2)no1` (centres undefined), the RP-LC retention time stood at 810 s. `CCc1nnc(NC(=O)c2ccoc2COc2ccc(C)cc2)s1`: the RP-LC retention time came to 803 s.

Molecule `Brc1ccc(C(c2nnc(-c3ccccc3)o2)N2CCN(c3ncccn3)CC2)cc1` (centres undefined) registered an RP-LC retention time of 1170 s.

Molecule `COc1ccc(N2CCN(C(=O)C3CCN(CCc4c[nH]c5ncccc45)CC3)CC2)cc1` gave an RP-LC retention time of 567 s. Next, `CC(C)NC(=O)c1ccc(OCC2CCCN(C(=O)C3(c4ccccc4)CC3)C2)cc1` (centres undefined): 940 s. Take `O=S(=O)(Cc1ccccc1)N1CCC(Cc2nncn2-c2ccccc2)CC1`: the RP-LC retention time was found to be 1080 s. Next, `COc1ccc(NC(=O)c2c[nH]c3ncccc23)c(C)c1`: 657 s; `CC(C)NC(=O)c1nc(-c2ccnc(N3CCOCC3)c2)no1`: 671 s. The molecule `COc1cccc(-n2ccc(=O)c(-c3nc(-c4ccc5c(c4)OCO5)no3)n2)c1` gave an RP-LC retention time of 799 s.

As to `COc1ccc(S(=O)(=O)CC(=O)Nc2nnc(-c3cc(C)oc3C)o2)cc1`, the RP-LC retention time is 721 s.

Molecule `CC(C)CC(=O)Nc1n[nH]c2c1CN(C(=O)C1CCN(C)CC1)C2(C)C` came in with an RP-LC retention time of 605 s. In turn, `COc1cc(-c2cc(C(=O)O)c3cc4c(cc3n2)OCCO4)cc(OC)c1OC` yielded an RP-LC retention time of 676 s. Then `O=C(NCc1ccco1)c1cccc(Nc2c(-c3ccccc3)nc3cnccn23)c1`, with 756 s; and `Cc1nc(-c2csc(S(=O)(=O)N3CCCC(C(=O)NCc4ccccc4Cl)C3)c2)no1` (centres undefined), with 940 s. `Cc1ccc(-c2c(C(=O)NCc3ccco3)nc3ccccn23)cc1`: the RP-LC retention time came to 1150 s.

For the origin of these results see the METLIN SMRT retention time set (Domingo-Almenara et al. 2019).
